Experiment: Circular dichroism in POPC liposomes
Format: physicochemical
Conditions: 1:250 peptide:lipid

SSLSLLSLSWLSLSLLSLS [SLscr2]
Conformation by CD in POPC liposomes, in words: β-sheet-like conformation

— PMC4341838 (Biochemistry, 2015)
